Measurements: patent US20240400586A1, “HETEROARYL DERIVATIVE PARP INHIBITOR AND USE THEREOF” (HAISCO PHARMACEUTICAL GROUP CO., LTD., priority 2021, published 2024)
pIC50: −log10 of the molar value.

Assays:
PARP-1 enzyme = PARP-1 enzyme (Homo sapiens (Human), UniProt P09874); test: PARP1 enzyme activity test (BPS Bioscience chemiluminescence kit); assay type: biochemical
Source text: Inhibition %=(1−(RLUsample−RLUmin)/(RLUmax−RLUmin))×100% (formula 1)

[1] = test system: breast tumor cells MDA-MB-436; test: MDA-MB-436 cell activity test (CellTiter-Glo, 7 days); assay type: cell-based; details: Homo sapiens, MDA-MB-436, 168 h, 7 days incubation; for inhibition at 10 µM: read-out: MDA-MB-436 Max inh. % 10 μM; for pIC50: read-out: MDA-MB-436 cell inhibitory activity IC50
Protocol: Breast tumor cells MDA-MB-436 were purchased from ATCC, the culture medium was Leibovitz's L-15+10% FBS, and the cells were cultured in a CO2-free incubator at 37° C. On day 1, the cells in the exponential growth phase were collected, and the cell suspension was adjusted to 4000 cells/135 μL with the culture medium. 135 μL of the cell suspension was added to each well of a 96-well cell culture plate and incubated overnight. On day 2, compounds at different concentrations were added, and the plate was placed in the incubator and incubated for 7 days. After the incubation was completed, according to operation instructions for a CellTiter-Glo kit (Promega, G7573), 75 μL of CTG solution, which was already pre-melted and equilibrated to room temperature, was added to each well, and the mixture was uniformly mixed for 2 min using a microplate shaker. The plate was placed at room temperature for 10 min, and then […] were measured using an Envision2104 plate reader (PerkinElmer). The inhibition rate was calculated using formula (1), where RLUcompound was the readout of the drug treated group, RLUcontrol was the average value of the vehicle control group, and RLUblank was the average value of the cell-free well. The IC50 value was calculated using GraphPad Prism software.

Chain of PARP-1 enzyme (P09874 whole entry): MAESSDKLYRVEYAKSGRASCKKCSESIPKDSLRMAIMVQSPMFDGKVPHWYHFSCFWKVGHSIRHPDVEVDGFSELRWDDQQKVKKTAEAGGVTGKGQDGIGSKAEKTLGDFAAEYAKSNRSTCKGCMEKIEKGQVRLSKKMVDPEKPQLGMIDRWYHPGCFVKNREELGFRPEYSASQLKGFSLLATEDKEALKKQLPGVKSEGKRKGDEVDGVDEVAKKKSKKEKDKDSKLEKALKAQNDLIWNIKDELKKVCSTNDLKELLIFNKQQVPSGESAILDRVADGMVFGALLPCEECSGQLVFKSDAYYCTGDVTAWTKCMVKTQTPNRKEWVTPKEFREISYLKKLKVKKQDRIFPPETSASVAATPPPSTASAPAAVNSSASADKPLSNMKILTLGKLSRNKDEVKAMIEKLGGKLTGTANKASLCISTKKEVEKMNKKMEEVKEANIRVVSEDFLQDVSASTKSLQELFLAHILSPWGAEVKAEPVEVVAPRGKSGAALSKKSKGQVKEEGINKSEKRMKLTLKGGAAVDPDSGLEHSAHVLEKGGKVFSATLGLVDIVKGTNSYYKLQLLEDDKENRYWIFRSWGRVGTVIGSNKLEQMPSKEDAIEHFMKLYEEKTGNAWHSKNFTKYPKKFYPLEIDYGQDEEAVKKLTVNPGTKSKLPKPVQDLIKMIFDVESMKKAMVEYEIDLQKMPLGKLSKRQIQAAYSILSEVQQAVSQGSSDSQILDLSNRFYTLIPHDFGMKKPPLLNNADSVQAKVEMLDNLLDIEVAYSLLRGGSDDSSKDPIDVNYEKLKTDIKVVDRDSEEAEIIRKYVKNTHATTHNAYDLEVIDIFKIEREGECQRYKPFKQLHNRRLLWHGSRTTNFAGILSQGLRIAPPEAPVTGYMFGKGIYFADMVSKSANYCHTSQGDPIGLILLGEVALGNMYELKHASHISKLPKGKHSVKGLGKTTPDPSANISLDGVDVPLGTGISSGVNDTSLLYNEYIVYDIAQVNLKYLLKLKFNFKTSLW

| SMILES | pIC50 (PARP-1 enzyme) | inhibition at 10 µM [1] | pIC50 [1] |
| --- | --- | --- | --- |
| CCc1cc2ncc(CN3CCN(c4ccc(C(=O)N[C@H]5CCNC5)nc4)CC3)cc2[nH]c1=O [Compound 20, (S)-5-(4-((7-ethyl-6-oxo-5,6-dihydro-1,5-naphthyridin-3-yl)methyl)piperazin-1-yl)-N-(pyrrolidin-3-yl)picolinamide] | 9.49 | – | – |
| CCc1cc2ncc(CN3CCN(c4cnc(C(=O)NC)cn4)CC3)cc2[nH]c1=O [Compound 2, 5-(4-((7-ethyl-6-oxo-5,6-dihydro-1,5-naphthyridin-3-yl)methyl)piperazin-1-yl)-N-methylpyrazine-2-carboxamide] | 8.70 | – | – |
| CCc1cn2cc(N3CCN(Cc4cnc5cc(CC)c(=O)[nH]c5c4)CC3)ncc2n1 [Compound 44, 3-ethyl-7-((4-(2-ethylimidazo[1,2-a]pyrazin-6-yl)piperazin-1-yl)methyl)-1,5-naphthyridin-2 (1H)-one] | 9.04 | – | – |
| CCc1cc2ncc(CN3CCN(c4ccc(C(=O)NC56CC(C5)C6)nc4)CC3)cc2[nH]c1=O [Compound 39, N-(bicyclo[1.1.1]pentan-1-yl)-5-(4-((7-ethyl-6-oxo-5,6-dihydro-1,5-naphthyridin-3-yl)methyl)piperazin-1-yl)picolinamide] | 9.11 | 99.1% | 8.92 |
| CCc1cc2ncc(CN3CCN(c4ccc(C(=O)N[C@H]5C[C@H]5F)nc4)CC3)cc2[nH]c1=O [Compound 41, 5-(4-((7-ethyl-6-oxo-5,6-dihydro-1,5-naphthyridin-3-yl)methyl)piperazin-1-yl)-N-((1S,2R)-2-fluorocyclopropyl)picolinamide] | 9.08 | 92.1% | 8.64 |
| CCc1cc2ncc(CN3CCN(c4ccc(-c5nnc(C)o5)nc4)CC3)cc2[nH]c1=O [Compound 3, 3-ethyl-7-((4-(6-(5-methyl-1,3,4-oxadiazol-2-yl)pyridin-3-yl)piperazin-1-yl)methyl)-1,5-naphthyridin-2 (1H)-one] | 8.88 | – | – |
| CCc1cc2ncc(CN3CCN(c4cnc(C(=O)NC)cc4F)CC3)cc2[nH]c1=O [Compound 12, 5-(4-((7-ethyl-6-oxo-5,6-dihydro-1,5-naphthyridin-3-yl)methyl)piperazin-1-yl)-4-fluoro-N-methylpicolinamide] | 8.80 | – | – |
| CCc1cc2ncc(CN3CCN(c4ccc(-c5cnn[nH]5)nc4)CC3)cc2[nH]c1=O [Compound 29, 7-((4-(6-(1H-1,2,3-triazol-5-yl)pyridin-3-yl)piperazin-1-yl)methyl)-3-ethyl-1,5-naphthyridin-2 (1H)-one] | 9.35 | – | – |
| CCc1cc2ncc(CN3CCN(c4ccc(NC(=O)[C@@H]5C[C@H]5F)nc4)CC3)cc2[nH]c1=O [Compound 35, (1S,2R)—N-(5-(4-((7-ethyl-6-oxo-5,6-dihydro-1,5-naphthyridin-3-yl)methyl)piperazin-1-yl)pyridin-2-yl)-2-fluorocyclopropane-1-carboxamide] | – | 90.4% | 8.01 |
| CCc1cc2ncc(CN3CCN(c4ccc(NC(=O)[C@H]5CCN(C)C5)nc4)CC3)cc2[nH]c1=O [Compound 36, (S)—N-(5-(4-((7-ethyl-6-oxo-5,6-dihydro-1,5-naphthyridin-3-yl)methyl)piperazin-1-yl)pyridin-2-yl)-1-methylpyrrolidine-3-carboxamide] | 9.24 | – | – |
| CCc1cc2ncc(CN3CCN(c4ccc(C(=O)NCCOC5CC5(F)F)nc4)CC3)cc2[nH]c1=O (centres unmarked) [Compound 52, N-(2-(2,2-difluorocyclopropoxy)ethyl)-5-(4-((7-ethyl-6-oxo-5,6-dihydro-1,5-naphthyridin-3-yl)methyl)piperazin-1-yl)picolinamide] | – | 92.4% | 8.51 |
| CCc1cc2ncc(CN3CCN(c4cnc(C(=O)NC5CC5)cc4F)CC3)cc2[nH]c1=O [Compound 13, N-cyclopropyl-5-(4-((7-ethyl-6-oxo-5,6-dihydro-1,5-naphthyridin-3-yl)methyl)piperazin-1-yl)-4-fluoropicolinamide] | 9.12 | – | – |
| CCc1cc2ncc(CN3CCN(c4ccc(C(=O)Nc5ccn(C)n5)nc4)CC3)cc2[nH]c1=O [Compound 48, 5-(4-((7-ethyl-6-oxo-5,6-dihydro-1,5-naphthyridin-3-yl)methyl)piperazin-1-yl)-N-(1-methyl-1H-pyrazol-3-yl)picolinamide] | 9.46 | – | – |
| CCc1cc2ncc(CN3CCN(c4cn5cc(C(F)(F)F)nc5cn4)CC3)cc2[nH]c1=O [Compound 43, 3-ethyl-7-((4-(2-(trifluoromethyl)imidazo[1,2-a]pyrazin-6-yl)piperazin-1-yl)methyl)-1,5-naphthyridin-2 (1H)-one] | 9.03 | – | – |
| CCc1cc2ncc(CN3CCN(c4ccc5c(c4)CN(C)C5=O)CC3)cc2[nH]c1=O [Compound 1, 3-ethyl-7-((4-(2-methyl-1-oxoisoindolin-5-yl)piperazin-1-yl)methyl)-1,5-naphthyridin-2 (1H)-one] | 8.44 | – | – |
| CCc1cc2ncc(CN3CCN(c4ccc(C(=O)NCCOC5CC5)nc4)CC3)cc2[nH]c1=O [Compound 53, N-(2-cyclopropoxyethyl)-5-(4-((7-ethyl-6-oxo-5,6-dihydro-1,5-naphthyridin-3-yl)methyl)piperazin-1-yl)picolinamide] | – | 90.6% | 8.66 |
| CCc1cc2ncc(CN3CCN(c4ccc(NC(C)=O)nc4)CC3)cc2[nH]c1=O [Compound 7, N-(5-(4-((7-ethyl-6-oxo-5,6-dihydro-1,5-naphthyridin-3-yl)methyl)piperazin-1-yl)pyridin-2-yl)acetamide] | 9.49 | – | – |
| CCc1cc2ncc(CN3CCN(c4cn5cc(C(F)F)nc5cn4)CC3)cc2[nH]c1=O [Compound 45] | 9.14 | – | – |
| CCc1cc2ncc(CN3CCN(c4ccc(C(=O)NC5CN(c6ccccc6)C5)nc4)CC3)cc2[nH]c1=O [Compound 46, 5-(4-((7-ethyl-6-oxo-5,6-dihydro-1,5-naphthyridin-3-yl)methyl)piperazin-1-yl)-N-(1-phenylazetidin-3-yl)picolinamide] | 9.25 | – | – |
| CCc1cc2ncc(CN3CCN(c4ccc(C(=O)N[C@@H]5CCNC5)nc4)CC3)cc2[nH]c1=O [Compound 18, (R)-5-(4-((7-ethyl-6-oxo-5,6-dihydro-1,5-naphthyridin-3-yl)methyl)piperazin-1-yl)-N-(pyrrolidin-3-yl)picolinamide] | 9.48 | – | – |
| CCc1cc2ncc(CN3CCN(c4ccc(C(=O)NC5CCN(C)CC5)nc4)CC3)cc2[nH]c1=O [Compound 17, 5-(4-((7-ethyl-6-oxo-5,6-dihydro-1,5-naphthyridin-3-yl)methyl)piperazin-1-yl)-N-(1-methylpiperidin-4-yl)picolinamide] | 9.46 | – | – |
| CCc1cc2ncc(CN3CCN(c4ccc(C(=O)NC5CCNCC5)nc4)CC3)cc2[nH]c1=O [Compound 16, 5-(4-((7-ethyl-6-oxo-5,6-dihydro-1,5-naphthyridin-3-yl)methyl)piperazin-1-yl)-N-(piperidin-4-yl)picolinamide] | 9.29 | – | – |
| CCc1cc2ncc(CN3CCN(c4cn5cc(C)nc5cn4)CC3)cc2[nH]c1=O [Compound 15, 3-ethyl-7-((4-(2-methylimidazo[1,2-a]pyrazin-6-yl)piperazin-1-yl)methyl)-1,5-naphthyridin-2 (1H)-one] | 9.19 | – | – |
| CCc1cc2ncc(CN3CCN(c4ccc(NC(=O)[C@H]5C[C@H]5F)nc4)CC3)cc2[nH]c1=O [Compound 34, (1R,2R)—N-(5-(4-((7-ethyl-6-oxo-5,6-dihydro-1,5-naphthyridin-3-yl)methyl)piperazin-1-yl)pyridin-2-yl)-2-fluorocyclopropane-1-carboxamide] | – | 81.9% | 7.78 |
| CCc1cc2ncc(CN3CCN(c4ccc(NC(=O)OC)nc4)CC3)cc2[nH]c1=O [Compound 8, methyl(5-(4-((7-ethyl-6-oxo-5,6-dihydro-1,5-naphthyridin-3-yl)methyl)piperazin-1-yl)pyridin-2-yl)carbamate] | 9.24 | – | – |
| CCc1cc2ncc(CN3CCN(c4ccc(NC(=O)NC)nc4)CC3)cc2[nH]c1=O [Compound 14, 1-(5-(4-((7-ethyl-6-oxo-5,6-dihydro-1,5-naphthyridin-3-yl)methyl)piperazin-1-yl)pyridin-2-yl)-3-methylurea] | 9.15 | – | – |
| CCc1cc2ncc(CN3CCN(c4ccc5nc(C)cn5n4)CC3)cc2[nH]c1=O [Compound 27, 3-ethyl-7-((4-(2-methylimidazo[1,2-b]pyridazin-6-yl)piperazin-1-yl)methyl)-1,5-naphthyridin-2 (1H)-one] | 9.12 | – | – |
| CCc1cc2ncc(CN3CCN(c4ccc5nc(C)nn5c4)CC3)cc2[nH]c1=O [Compound 31, 3-ethyl-7-((4-(2-methyl-[1,2,4]triazolo[1,5-a]pyridin-6-yl)piperazin-1-yl)methyl)-1,5-naphthyridin-2 (1H)-one] | 8.77 | – | – |
| CCc1cc2ncc(CN3CCN(c4ccc(-c5ccn[nH]5)nc4)CC3)cc2[nH]c1=O [Compound 30, 7-((4-(6-(1H-pyrazol-5-yl)pyridin-3-yl)piperazin-1-yl)methyl)-3-ethyl-1,5-naphthyridin-2 (1H)-one] | 9.35 | – | – |
| CCc1cc2ncc(CN3CCN(c4ccc(Nc5ccn(C)n5)nc4)CC3)cc2[nH]c1=O [Compound 32, 3-ethyl-7-((4-(6-((1-methyl-1H-pyrazol-3-yl)amino)pyridin-3-yl)piperazin-1-yl)methyl)-1,5-naphthyridin-2 (1H)-one] | 8.70 | – | – |
